In article PMC6832649, “Sa12b Peptide from Solitary Wasp Inhibits ASIC Currents in Rat Dorsal Root Ganglion Neurons” (Toxins, 2019):
“Also recorded” adds a separate entry of the source. Where no end group is shown, it is not given here.

Key:
[1] = pH not stated for this peptide; ref [37]; cited from earlier work
From the text: RFa-related peptides have an NH2 group which is positively charged at pH 5 to 8 [21]. The effects of Sh5b could be due to the positive charge given by its amine group. Other inhibitors of ASICs, such as the PhcrTx1 peptide, which at pH 7.4 has a net charge of +5.03, APETx2 (net charge = +2.00), and PcTx1 (net charge = +3) also have that particularity. Aminoglycosides are also positively-charged ASICs modulators.

rASIC3 = test system: rASIC3; set-up: method as in PMID 15044953; conditions: ref [34]; read-out: IC50, homomeric rASIC3; cited from earlier work
hASIC3 = test system: hASIC3; set-up: method as in PMID 15044953; conditions: ref [34]; cited from earlier work
[2] = test system: ASIC currents in rat dorsal root ganglion (DRG) neurons; test: ASIC currents in DRG neurons, whole-cell voltage clamp; format: cell-based, Long-Evans CII rat (P7-P10)
Procedure: To study the effect of Sa12b and Sh5b on ASIC, DRG neurons were obtained from Long-Evans CII / ZV rats of 7 to 10 days of postnatal age, of either sex. Animals were provided by the laboratory animal facility ‘Claude Bernard’ of the Autonomous University of Puebla. The study was performed in accordance with the recommendations in the Guiding Principles in the Care and Use of Vertebrate Animals in Research and Training of the American Physiological Society, and with the regulations of the NOM-062-ZOO-1999 of the Mexican Ministry of Agriculture, Stockbreeding, Rural Development, Fishing and Food. The protocol was reviewed and approved by the Institutional Committee for Animal Care and Use (IACUC) of the Autonomous University of Puebla (VIEP-BUAP) on 17 July 2017. The ethical approval code is SOEE-UALVIEP-17-1. All efforts were made to minimize animal suffering and to reduce the number of animals used. DRG neurons were isolated and maintained in primary culture according to the methodology described previously. The dissection and cell culture were performed within a level I biosafety laminar flow hood (Nuaire, Plymouth, MN, USA). Rats were anesthetized with sevoflurane and sacrificed by decapitation. Subsequently, the rat was placed in prone position to make a longitudinal incision through the vertebral bodies removing the spinal cord. Dorsal root ganglia were isolated (approximately 12 to 18 per rat) using conventional dissection under a stereoscopic microscope (American Optical, Southbridge, MA, USA). Once extracted, DRG neurons were placed in a disposable sterile centrifuge tube (Corning, Corning, NY, USA), in which they were incubated for 30 min at 37 °C in Leibovitz L15 medium (L15) (Invitrogen, Waltham, MA, USA), added with 1.25 mg/mL of trypsin and 1.25 mg/mL of collagenase (both from Sigma-Aldrich, St. Louis, MO, USA) for an enzymatic dissociation.
After the enzymatic treatment, the ganglia were washed 3 times with 100% L15 medium; after each wash, the cells were subjected to mechanical dissociation using glass three-gauge Pasteur pipettes; between each wash, a cell pellet was formed using a centrifuge at 5000 rpm. After the third wash, once the cell pellet was formed, the supernatant was discarded, and the cell suspension was placed in a 35 mm culture dish (Corning) on 12 × 10 mm glass plates (Corning) previously treated with poly-D-lysine (Sigma-Aldrich, St. Louis, MO, USA).
Dissociated neurons were incubated for a period of time ranging from 2 to 8 h in a humidified atmosphere ([…], 5% CO2, at 37 °C) using a water-jacketed CO2 incubator (Nuaire, Plymouth, MN, USA) allowing for settlement and adhesion of isolated cells to the glass plates. The cells were cultured in modified L15 medium, supplemented with 10% fetal bovine serum (Gibco, Waltham, MA, USA), 100 IU penicillin (Lakeside, Hayward, CA USA), fungizone 2.5 μL/mL (Gibco), NaHCO3 15.7 mM (J.T. Baker, Radnor DE, USA) and 15.8 mM HEPES (Sigma-Aldrich, St. Louis, MO, USA).
After an incubation period of 2 to 8 h, the recording of ASIC currents in DRG neurons was performed. Cells were transferred to a recording chamber mounted in a phase-contrast inverted microscope (TMS, Nikon Co. Tokyo, Japan).
The recording chamber was constantly perfused with extracellular solution (Table 3). Recordings were performed in whole-cell voltage-clamp mode using an Axopatch 1D amplifier (Molecular Devices, Union City, CA, USA). Data collection and generation of commands for the perfusion change were carried out by the pClamp 9.2 (Molecular Devices) software in a 16-bit data acquisition system (Digidata 1320, Molecular Devices). […] The signals were digitized at 5 kHz. The series resistance was electronically compensated at 80%. Throughout the recording, access resistance and seal quality were monitored to ensure stable recording conditions.
Proton-gated currents were obtained with a holding potential of −60 mV. […]

ASIC1a = conditions: ref [38]; cited from earlier work
ASIC1b = conditions: ref [9]; read-out: EC50, agonist of ASIC1b; cited from earlier work
ASIC currents = conditions: 10 μM stated to be close to the EC50 of FMRFa; no reference given; cited from earlier work
Procedure: The peptide was initially tested at 10 μM, this concentration was used because it is close to the EC50 of FMRFa. With application of 10 µM Sa12b in preincubation form (20 s before and 5 s during acid pulse), Sa12b inhibited ASIC currents 92.7 ± 7.3% (p < 0.05 paired Student’s t-test, n = 5) (Figure 2A).

[3] = molecular target: Acid-Sensing Ion Channels (ASIC) of rat dorsal root ganglion neurons
[4] = molecular target: Acid-Sensing Ion Channels (ASIC) of rat dorsal root ganglion neurons; remark: listed apart in the source
[5] = Sh5b 100 nM, co-application, mean ± E.S., n = 5
[6] = Sh5b 100 nM, preincubation, mean ± E.S., n = 9
[7] = Sh5b 100 nM, preincubation, single recording, Figure 6A
[8] = Sh5b 1 µM, preincubation, single recording, Figure 6B
[9] = Sh5b 3 µM, co-application, single recording, Figure 5A
[10] = Sh5b 10 µM, co-application, mean ± E.S., n = 9
[11] = Sh5b 10 µM, co-application, single recording, Figure 5B
[12] = Sh5b 10 µM, preincubation, mean ± E.S., n = 12
[13] = Sh5b 10 µM, preincubation, single recording, Figure 6C
[14] = Sh5b 30 µM, co-application, mean ± E.S., n = 6
[15] = Sh5b 30 µM, co-application, single recording, Figure 5C

APETx2
net charge [1]: +2.00 | IC50 (rASIC3): 37 to 63 nM | IC50 (hASIC3): ~175 nM

DVDHVFLRF-NH2 [Sh5b]
effect on analyzed parameters of ASIC current ([2]; Sh5b 100 nM, co-application, n = 5): no consistent concentration-dependent effects | % ISS change (increase 🡹) [2, 5]: 🡹 85 ± 74% | % Ipeak change (decrease 🡻) [2, 5]: 🡻2 ± 4% | % Ƭdes change (decrease 🡻) [2, 5]: 🡻 1 ± 2% | effect on analyzed parameters ([2]; Sh5b 100 nM, preincubation, n = 9): no effect | % ISS change (increase 🡹) [2, 6]: 🡹 53 ± 38% | % Ipeak change (decrease 🡻) [2, 6]: 🡻0.5 ± 6% | % Ƭdes change (increase 🡹) [2, 6]: 🡹 13 ± 15% | change in Ƭdes [2, 7]: no change | increase of ISS [2, 7]: 3% | increase of Ipeak [2, 7]: 1% | % Ƭdes change (increase 🡹) ([2]; Sh5b 1 µM, preincubation, mean ± E.S., n = 5): 🡹 3 ± 5% | inhibition of ISS [2, 8]: 5% | inhibition of Ipeak [2, 8]: 1% | % Ipeak change (decrease 🡻) ([2]; Sh5b 3 µM, co-application, mean ± E.S., n = 12): 🡻6 ± 3% | increase of ISS [2, 9]: 30% | reduction of Ipeak [2, 9]: 9.6% | overall change of Ipeak ([2]; Sh5b 10 µM, co-application, increase in some cells, decrease in others): non-significant | % ISS change (increase 🡹) [2, 10]: 🡹 1 ± 11% | % Ƭdes change (decrease 🡻) [2, 10]: 🡻 10 ± 5% | % Ipeak change (increase 🡹) ([2]; Sh5b 10 µM, co-application, mean ± E.S., n = 9, non-significant): 🡹17 ± 15% | increase of ISS [2, 11]: 14.6% | increase of Ipeak [2, 11]: 44.6% | effect on studied parameters ([2]; Sh5b 10 µM, preincubation, n = 12): did not produced significant effects | % ISS change (decrease 🡻) [2, 12]: 🡻 8 ± 15% | % Ipeak change (decrease 🡻) [2, 12]: 🡻11 ± 4% | % Ƭdes change (decrease 🡻) [2, 12]: 🡻 5 ± 4% | change in Ƭdes [2, 13]: no change | increase of ISS [2, 13]: 26% | inhibition of Ipeak [2, 13]: 18% | ISS amplitude ([2]; Sh5b 30 µM, co-application, from 79 pA before peptide, single recording, Figure 5C): 159 pA | % Ipeak change (decrease 🡻) [2, 14]: 🡻1 ± 6% | % Ƭdes change (increase 🡹) [2, 14]: 🡹 9 ± 5% | increase of ISS [2, 15]: 102% | inhibition of Ipeak [2, 15]: 3.8% | overall effect on ASIC currents ([2]; Sh5b, both application protocols): did not show consistent results having both excitatory and inhibitory effects on the maximum ASIC currents; also recorded: did not produce consistent, reproducible, effects | concentration dependence of effects on ASIC current ([2]; Sh5b, co-application, 100 nM-30 µM): not dependent on concentration | effect on ISS/Ipeak relationship ([2]; Sh5b, co-application, overall): tendency towards the increase | effect on Ƭdes ([2]; Sh5b, co-application, overall): did not show noticeable differences | effect on ISS component ([2]; Sh5b, overall, preincubation): increased slightly | effect on ISS/Ipeak relationship ([2]; Sh5b, preincubation, overall): also increased | effect on current peak ([2]; Sh5b, preincubation, overall): tendency to inhibit the current peak | effect on Ƭdes and integral of the current ([2]; Sh5b, preincubation, overall): no consistent changes | reversibility of effect on ASIC current ([2]; after 1 min washout): reversed by 1 min peptide washout

PcTx1
IC50 (ASIC1a): 1 nM | net charge [1]: +3 | EC50 (ASIC1b): ~100 nM

Phe-Met-Arg-Phe amide [FMRFa, abundant tetrapeptide in invertebrate nervous systems, neurotransmitter and neuromodulator]
EC50 (ASIC currents): ~10000 nM

Sa12b peptide
percent decrease of the ASIC I peak at pH 6.1, Sa12b by preincubation, 30 nM to 10 µM (highest at 1 µM), whole-cell voltage clamp of rat DRG neurons [3]: 98 % I_(peak)

B1: Sh5b peptide (peptide)
peptide: DVDHVFLRF-NH2
percent decrease of the ASIC I peak at pH 6.1, Sh5b by preincubation, 100 nM to 10 µM (largest at 10 µM; not significant), whole-cell voltage clamp of rat DRG neurons [4]: 11 % I_(peak)
